The results in this text go back to patent publication US11464770B2, “Anticancer pharmaceutical composition” (NATIONAL CANCER CENTER, priority 2016, dated 2022).

In general, IC50 refers to the concentration that inhibits the measured activity by half.

Experiment [1] has as its system lung cancer cell lines (e.g. NCI-H23, NCI-H1229). Briefly: Cell based assay, cell viability (CellTiter-Glo), lung cancer cell lines. The settings on record: Homo sapiens, 72 hours treatment, CellTiter-Glo. The gist of the method:
(§1)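 Cells were trypsinized, seeded, and left 24 h before compound was added at 0 to 2 μM final. After a further 72 h of culture, viability was read by ATP-based luminescence.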
In general terms: In ATP-based viability assays light output follows the ATP content of the culture.

For experiment [2], the system named is blood cancer cell lines (e.g. HL-60, Jurkat, Raji, Ramos, Daudi, MOLT-4). Briefly: Cell based assay, cell viability (CellTiter-Glo), blood cancer cell lines. The settings on record: Homo sapiens. The gist of the method:
as §1

The subject of another experiment is brain cancer cell lines. In words: Cell based assay, cell viability (CellTiter-Glo), brain cancer cell lines. Conditions: Homo sapiens.
In a further experiment the test system is liver cancer cell lines. In words: Cell based assay, cell viability (CellTiter-Glo), liver cancer cell lines. The settings on record: Homo sapiens, SK-HEP1; SK-HEP-1 cell line. The gist of the method: as §1
Where [3] appears, read: A549 cells, read-out: IC50, lung cancer cell line A549.
Where [4] appears, read: DMS 114 cells, read-out: IC50, lung cancer cell line DMS 114.
Where [5] appears, read: NCI-H23 cells, read-out: IC50, lung cancer cell line NCI-H23.
The mark [6] stands for this setting: NCI-H460 cells, read-out: IC50, lung cancer cell line NCI-H460.
The mark [7] stands for this setting: NCI-H522 cells, read-out: IC50, lung cancer cell line NCI-H522.
Where [8] appears, read: NCI-H1299 cells, read-out: IC50, lung cancer cell line NCI-H1299.
The mark [9] stands for this setting: NCI-H1437 cells, read-out: IC50, lung cancer cell line NCI-H1437.
[10] abbreviates: MV4-11, blood cancer cell line MV-4-11, 72 hours, read-out: IC50, MV-4-11.
[11] abbreviates: blood cancer cell line Daudi, 72 hours, read-out: IC50, Daudi.
[12] abbreviates: blood cancer cell line HL-60, 72 hours, read-out: IC50, HL-60.
Setting [13] is: blood cancer cell line Jurkat, 72 hours, read-out: IC50, Jurkat.
Where [14] appears, read: blood cancer cell line MOLT-4, 72 hours, read-out: IC50, MOLT-4.
Where [15] appears, read: blood cancer cell line Raji, 72 hours, read-out: IC50, Raji.
The mark [16] stands for this setting: blood cancer cell line Ramos (RA 1), 72 hours, read-out: IC50, Ramos (RA 1).
Setting [17] is: blood cancer cell line U-937, 72 hours, read-out: IC50, U-937.
Setting [18] is: U138-MG, U-138 MG cell line, read-out: IC50, Brain cancer cell line U-138 MG.
Where [19] appears, read: T98G cell line, read-out: IC50, Brain cancer cell line T98G.
The mark [20] stands for this setting: U-251 MG cell line, read-out: IC50, Brain cancer cell line U-251 MG.

Read-outs that look alike come from different tables or passages of the source.

As for `CC(=O)c1c([S+]([O-])Cc2cc(F)cc(F)c2)[nH]c2c(Br)ccc(Cl)c2c1=O` (centres unmarked) [Compound 46, 3-acetyl-8-bromo-5-chloro-2-((3,5-difluorobenzyl)sulfinyl)quinolin-4(1H)-one], the 50% inhibitory concentration (IC50) in experiment [1] (setting [3]) was above 2000 nM; in experiment [1] (setting [4]), above 2000 nM; in experiment [1] (MRC-5 cells, read-out: IC50) it was above 2000 nM; in experiment [1] (setting [5]) it was 1270 nM; in experiment [1] (setting [6]), above 2000 nM; in experiment [1] (setting [7]), above 2000 nM. The concentration for half-maximal inhibition (IC50) in experiment [1] (setting [8]) was 1870 nM; in experiment [1] (setting [9]), above 10000 nM; in experiment [2] (setting [10]) it was above 2000 nM; in experiment [2] (setting [11]) it was above 2000 nM; in experiment [2] (setting [12]), above 2000 nM; in experiment [2] (setting [13]) it was above 2000 nM. The IC50 in experiment [2] (setting [14]) is above 2000 nM; in experiment [2] (setting [15]), above 2000 nM; in experiment [2] (setting [16]) it was above 2000 nM; in experiment [2] (setting [17]), above 2000 nM; in the experiment with brain cancer cell lines (setting [18]) it was above 2000 nM; in the experiment on brain cancer cell lines (setting [19]), above 10000 nM. The concentration for half-maximal inhibition (IC50) in the experiment on brain cancer cell lines (setting [20]) was above 2000 nM; in the experiment with liver cancer cell lines, 1310 nM.

On to `CC(=O)c1c([S+]([O-])Cc2ccc([N+](=O)[O-])cc2)[nH]c2c(Cl)ccc(Cl)c2c1=O` (centres unmarked) [Compound 57, 3-acetyl-5,8-dichloro-2-((4-nitrobenzyl)sulfinyl)quinolin-4(1H)-one], for which the half-inhibitory concentration (IC50) in experiment [1] (setting [3]) was above 2000 nM; in experiment [1] (setting [4]), above 2000 nM; in experiment [1] (MRC-5 cells, read-out: IC50) it was above 2000 nM; in experiment [1] (setting [5]) it was 1830 nM; in experiment [1] (setting [6]), above 2000 nM; in experiment [1] (setting [7]), above 2000 nM. Moreover, the IC50 in experiment [1] (setting [8]) is above 2000 nM; in experiment [1] (setting [9]), above 10000 nM; in experiment [2] (setting [10]) it was above 2000 nM; in experiment [2] (setting [11]) it was above 2000 nM; in experiment [2] (setting [12]), above 2000 nM; in experiment [2] (setting [13]), above 2000 nM. For the same molecule, the half-inhibitory concentration (IC50) in experiment [2] (setting [14]) was above 2000 nM; in experiment [2] (setting [15]), above 2000 nM; in experiment [2] (setting [16]), above 2000 nM; in experiment [2] (setting [17]), above 2000 nM; in the experiment with brain cancer cell lines (setting [18]), above 10000 nM; with brain cancer cell lines (setting [19]) it was above 10000 nM. Moreover, the half-maximal inhibitory concentration (IC50) in the experiment on brain cancer cell lines (setting [20]) and in the experiment on liver cancer cell lines was above 2000 nM each time.

Consider `CC(=O)c1c([S+]([O-])Cc2ccc([N+](=O)[O-])cc2)[nH]c2c(Br)ccc(Cl)c2c1=O` (centres unmarked) [Compound 33, 3-acetyl-8-bromo-5-chloro-2-((4-nitrobenzyl)sulfinyl)quinolin-4(1H)-one], for which the half-maximal inhibitory concentration (IC50) in experiment [1] (setting [3]) is above 2000 nM; in experiment [1] (setting [4]), above 2000 nM; in experiment [1] (MRC-5 cells, read-out: IC50) it was 820 nM; in experiment [1] (setting [5]), 860 nM; in experiment [1] (setting [6]), 1780 nM; in experiment [1] (setting [7]) it was above 2000 nM. For the same molecule, the IC50 in experiment [1] (setting [8]) is 1380 nM; in experiment [1] (setting [9]) it was above 10000 nM; in experiment [2] (setting [10]) it was 1280 nM; in experiment [2] (setting [11]), above 2000 nM; in experiment [2] (setting [12]), 1770 nM; in experiment [2] (setting [13]), 1030 nM. Further, the IC50 in experiment [2] (setting [14]) was 1440 nM; in experiment [2] (setting [15]), 970 nM; in experiment [2] (setting [16]) it was above 2000 nM; in experiment [2] (setting [17]) it was above 2000 nM; in the experiment with brain cancer cell lines (setting [18]), above 2000 nM; in the experiment on brain cancer cell lines (setting [19]) it was above 10000 nM. Moreover, the 50% inhibitory concentration (IC50) is 1110 nM with brain cancer cell lines (setting [20]) and 1080 nM in the experiment with liver cancer cell lines.

Turning to `CC(=O)c1c([S+]([O-])Cc2ccc(C(C)(C)C)cc2)[nH]c2c(Br)ccc(Cl)c2c1=O` (centres unmarked) [Compound 60, 3-acetyl-8-bromo-2-((4-(tert-butyl)benzyl)sulfinyl)-5-chloroquinolin-4(1H)-one], the IC50 was above 2000 nM in experiment [1] (setting [3]); above 2000 nM in experiment [1] (setting [4]); above 2000 nM in experiment [1] (MRC-5 cells, read-out: IC50); 1370 nM in experiment [1] (setting [5]); above 2000 nM in experiment [1] (setting [6]); above 2000 nM in experiment [1] (setting [7]). For the same molecule, the half-maximal inhibitory concentration (IC50) is above 2000 nM in experiment [1] (setting [8]); above 10000 nM in experiment [1] (setting [9]); above 2000 nM in experiment [2] (setting [10]); above 2000 nM in experiment [2] (setting [11]); above 2000 nM in experiment [2] (setting [12]); 1270 nM in experiment [2] (setting [13]). Also, the concentration for half-maximal inhibition (IC50) in experiment [2] (setting [14]) was 1630 nM; in experiment [2] (setting [15]), above 2000 nM; in experiment [2] (setting [16]) it was above 2000 nM; in experiment [2] (setting [17]), above 2000 nM; in the experiment on brain cancer cell lines (setting [18]), above 2000 nM; with brain cancer cell lines (setting [19]), above 10000 nM. For the same molecule, the 50% inhibitory concentration (IC50) with brain cancer cell lines (setting [20]) and in the experiment with liver cancer cell lines was above 2000 nM each time.

With `COc1cc(S(F)(F)(F)(F)F)ccc1C[S+]([O-])c1[nH]c2c(Br)ccc(Cl)c2c(=O)c1C(C)=O` (centres unmarked) [Compound 75, 3-acetyl-8-bromo-5-chloro-2-((2-methoxy-4-(pentafluoro--sulfanyl)benzyl)sulfinyl)quinolin-4(1H)-one], the 50% inhibitory concentration (IC50) in experiment [1] (setting [3]) is 1700 nM; in experiment [1] (setting [4]), above 2000 nM; in experiment [1] (MRC-5 cells, read-out: IC50), 1090 nM; in experiment [1] (setting [5]), 1190 nM; in experiment [1] (setting [6]), 1730 nM; in experiment [1] (setting [7]), above 2000 nM. Also, the IC50 in experiment [1] (setting [8]) was 1060 nM; in experiment [1] (setting [9]), above 10000 nM; in experiment [2] (setting [10]), above 2000 nM; in experiment [2] (setting [11]) it was 1260 nM; in experiment [2] (setting [12]), above 2000 nM; in experiment [2] (setting [13]), 1090 nM. Moreover, the 50% inhibitory concentration (IC50) was 1280 nM in experiment [2] (setting [14]); 1160 nM in experiment [2] (setting [15]); above 2000 nM in experiment [2] (setting [16]); above 2000 nM in experiment [2] (setting [17]); 1370 nM with brain cancer cell lines (setting [18]); above 10000 nM with brain cancer cell lines (setting [19]). Also, the IC50 is 1090 nM in the experiment on brain cancer cell lines (setting [20]) and 1030 nM with liver cancer cell lines.

On to `COC(=O)c1ccc(C[S+]([O-])c2[nH]c3c(Cl)ccc(Cl)c3c(=O)c2C(C)=O)o1` (centres unmarked) [Compound 89, methyl 5-(((3-acetyl-5,8-dichloro-4-oxo-1,4-dihydroquinolin-2-yl)sulfinyl)methyl)furan-2-carboxylate], for which the IC50 in experiment [1] (setting [3]) is above 2000 nM; in experiment [1] (setting [4]) it was above 2000 nM; in experiment [1] (MRC-5 cells, read-out: IC50) it was above 2000 nM; in experiment [1] (setting [5]), 1470 nM; in experiment [1] (setting [6]), above 2000 nM; in experiment [1] (setting [7]) it was above 2000 nM. Also, the IC50 in experiment [1] (setting [8]) was above 2000 nM; in experiment [1] (setting [9]) it was above 10000 nM; in experiment [2] (setting [10]), 1750 nM; in experiment [2] (setting [11]), above 2000 nM; in experiment [2] (setting [12]) it was above 2000 nM; in experiment [2] (setting [13]), 1380 nM. In addition, the IC50 is above 2000 nM in experiment [2] (setting [14]); above 2000 nM in experiment [2] (setting [15]); 1710 nM in experiment [2] (setting [16]); above 2000 nM in experiment [2] (setting [17]); above 2000 nM with brain cancer cell lines (setting [18]); above 10000 nM with brain cancer cell lines (setting [19]). Besides, the values for the IC50 in the experiment on brain cancer cell lines (setting [20]) and in the experiment with liver cancer cell lines were above 2000 nM and 1590 nM, respectively.

For the molecule `Cc1cc(C[S+]([O-])c2[nH]c3c(Cl)ccc(Cl)c3c(=O)c2C(=O)C(C)C)no1` (centres unmarked) [Compound 86, 5,8-dichloro-3-isobutyryl-2-(((5-methylisoxazol-3-yl)methyl)sulfinyl)quinolin-4(1H)-one], the IC50 in experiment [1] (setting [3]) was 1190 nM; in experiment [1] (setting [4]), above 2000 nM; in experiment [1] (MRC-5 cells, read-out: IC50), 1130 nM; in experiment [1] (setting [5]), 710 nM; in experiment [1] (setting [6]), 1490 nM; in experiment [1] (setting [7]), 1090 nM. The half-maximal inhibitory concentration (IC50) in experiment [1] (setting [8]) is 1230 nM; in experiment [1] (setting [9]), below 2000 nM; in experiment [2] (setting [10]) it was 710 nM; in experiment [2] (setting [11]), 650 nM; in experiment [2] (setting [12]), 1380 nM; in experiment [2] (setting [13]), 550 nM. The IC50 in experiment [2] (setting [14]) was 1010 nM; in experiment [2] (setting [15]) it was 820 nM; in experiment [2] (setting [16]), 460 nM; in experiment [2] (setting [17]) it was 1230 nM; with brain cancer cell lines (setting [18]), 1290 nM; with brain cancer cell lines (setting [19]) it was above 10000 nM. Besides, the half-maximal inhibitory concentration (IC50) in the experiment with brain cancer cell lines (setting [20]) amounted to 740 nM; with liver cancer cell lines, 1000 nM.
